Measurements taken from patent publication US20120177701A1, “COMPOSITIONS COMPRISING IMMUNOSTIMULATORY NUCLEIC ACIDS AND RELATED METHODS” (priority 2010, published 2012).

Experiments:
murine splenocytes = assay: Immune cell activation (CD69 expression, FACS) in murine splenocytes; assay type: cell-based, mouse; conditions: 20 hours; for activation of immune cell populations (CD69 expression) / immune cell activation compared with R848 and control oligonucleotide: 200 nM DOTAP-complexed; for immune cell activation compared with R848 and control oligonucleotide: R848 1 μM; for NKT cell activation (CD69) / T cell activation (CD69) / granulocyte activation (CD69): compared with R848 1 μM
Experimental: In addition, upon removal of the supernatant at 20 hours post-incubation, the mouse cells were stained for the following cell markers: GR1, F4/80, CD11c, CD220, CD3, Ly49b, and CD69, and analyzed by FACS. Different immune cell populations were distinguished as follows: macrophages (F4/80^+/GR1^−); plasmacytoid dendritic cells or pDC (CD11c^+/CD220^+); B cells (CD220^+/CD11c^−); NK (CD3^−/Ly49b^+); myeloid DC or mDC ([…]); granulocytes (eosinophils) (GR1^+high/F4/80^−); T cells (CD3^+); and NKT cells (CD3^+/Ly49b^+). All immune cell populations were quantified by the expression of CD69 (am early activation marker).

human TLR8 = target: T1, human TLR8 (Homo sapiens, UniProt Q9NR97); assay: HEK-Blue hTLR8 NF-kB-inducible SEAP reporter assay (TLR8 activation); assay type: cell-based
T1 construct: host or cells: HEK293 (HEK-Blue hTLR8) with NF-kB-inducible SEAP reporter
T1 sequence (Q9NR97 27-1041): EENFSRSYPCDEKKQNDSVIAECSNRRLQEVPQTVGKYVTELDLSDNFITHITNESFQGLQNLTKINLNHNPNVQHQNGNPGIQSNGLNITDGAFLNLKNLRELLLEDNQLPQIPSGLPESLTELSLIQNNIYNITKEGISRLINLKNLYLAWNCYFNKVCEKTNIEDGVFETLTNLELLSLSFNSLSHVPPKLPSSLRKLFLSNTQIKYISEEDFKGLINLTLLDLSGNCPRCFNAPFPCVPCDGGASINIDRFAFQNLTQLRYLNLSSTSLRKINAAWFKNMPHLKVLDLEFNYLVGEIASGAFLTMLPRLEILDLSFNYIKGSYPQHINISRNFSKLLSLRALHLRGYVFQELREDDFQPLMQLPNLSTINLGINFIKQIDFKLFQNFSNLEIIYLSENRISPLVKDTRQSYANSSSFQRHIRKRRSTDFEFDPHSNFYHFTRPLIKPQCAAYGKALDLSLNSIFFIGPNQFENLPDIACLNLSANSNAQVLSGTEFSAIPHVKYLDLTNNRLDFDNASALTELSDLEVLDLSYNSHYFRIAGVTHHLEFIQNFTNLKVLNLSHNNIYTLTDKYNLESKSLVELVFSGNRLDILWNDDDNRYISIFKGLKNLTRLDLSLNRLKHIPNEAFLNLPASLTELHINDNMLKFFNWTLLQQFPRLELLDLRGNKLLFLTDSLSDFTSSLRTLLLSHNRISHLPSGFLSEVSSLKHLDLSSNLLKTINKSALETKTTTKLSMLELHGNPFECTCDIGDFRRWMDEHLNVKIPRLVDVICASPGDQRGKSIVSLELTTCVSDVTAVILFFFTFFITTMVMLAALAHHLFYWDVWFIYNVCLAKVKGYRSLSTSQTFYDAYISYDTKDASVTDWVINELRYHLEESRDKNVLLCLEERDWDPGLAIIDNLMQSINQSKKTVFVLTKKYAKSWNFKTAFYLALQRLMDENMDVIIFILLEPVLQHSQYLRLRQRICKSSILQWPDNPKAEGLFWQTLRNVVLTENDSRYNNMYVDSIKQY

J774 murine macrophages = assay: TNF-α induction in mouse macrophage cell line J774; assay type: cell-based
Experimental: Induction of TNF-α by macrophages is a hallmark of human TLR8 activation (Forsbach et al., 2008, J. Immunol., 180:3729-38; Ghosh et al., 2007, Int. Immunopharmacol., 7:1111-21; Gorden et al., 2005, J. Immunol., 174:1259-68). […] In the following experiment mouse macrophage cell line, J774, has been transfected by test ribonucleotides as described above for HEK-Blue™ hTLR8 cells (with the exception that 2-10×10^4 cells/well were used) and TNF-α was measured in culture supernatants at 16-20 hours after transfection.

| Substance | activation of immune cell populations (CD69 expression) (murine splenocytes) | immune cell activation compared with R848 and control oligonucleotide (murine splenocytes) | NKT cell activation (CD69) (murine splenocytes; 200 nM) | T cell activation (CD69) (murine splenocytes; 200 nM) | granulocyte activation (CD69) (murine splenocytes; 200 nM) | macrophage activation (CD69) (murine splenocytes; 200 nM, compared with R-0006) | TLR8 activation (fold increase of SEAP induction over the background), described in words (human TLR8) | TNF-α induction, described in words (J774 murine macrophages) | concentration at which TNF-α induction reached plateau (J774 murine macrophages) | B-cell activation (CD69) (murine splenocytes; 200 nM, compared with R-0006) |
| --- | --- | --- | --- | --- | --- | --- | --- | --- | --- | --- |
| 5′-AGAUGUUA--UUGUUU-AAUAUUU-3′ (AGAUGUUAUUGUUUAAUAUUU; phosphorothioate backbone, further chemistry not given here) [SL-0014, phosphorothioated ribonucleotide from SL-0001; dashes signify deleted nucleotides] | induced activation in most of the tested immune cell populations | at least comparable to that generated by treatment with 1 μM of R848, and usually exceeded the effects exhibited by the control oligonucleotide R-0006 | exceeded the activation observed for R848 | exceeded the activation observed for R848 | exceeded the activation observed for R848 | especially higher than the activation observed for R-0006 |  |  |  |  |
| 5′-AUUUAUUUUUAAAUUUUUGUGU-3′ (phosphorothioate, further chemistry not given here) [SL-0023, phosphorothioated ribonucleotide completely contained within SL-0005] |  |  |  |  |  |  | even stronger activity than the parental SL-0005 sequence |  |  |  |
| 5′-CUGUGUGAACGAUAGUGCAG-3′ (phosphorothioate, further chemistry not given here) [SL-0019, phosphorothioated ribonucleotide derived from SL-0004] |  |  |  |  |  |  | markedly weaker | weaker than the level of induction observed for the other oligonucleotides |  |  |
| 5′-GUUUAUCUGUGUG----------CAGUUUAAAC-3′ (GUUUAUCUGUGUGCAGUUUAAAC; phosphorothioate, further chemistry not given here) [SL-0020, dashes signify deleted nucleotides] |  |  |  |  |  |  | activity similar or exceeding that of SL-0004 | most potent | 300 nM |  |
| 5′-UUAUUUUGUUUUUAAUAUUU-3′ (phosphorothioate backbone, further chemistry not given here) [SL-0012] | induced activation in most of the tested immune cell populations | at least comparable to that generated by treatment with 1 μM of R848, and usually exceeded the effects exhibited by the control oligonucleotide R-0006 | exceeded the activation observed for R848 | exceeded the activation observed for R848 | exceeded the activation observed for R848 | especially higher than the activation observed for R-0006 |  |  |  |  |
| 5′-UUAUUUUGUUUUUAAUAUUUC-3′ (phosphorothioate backbone, further chemistry not given here) [SL-0011] | induced activation in most of the tested immune cell populations | at least comparable to that generated by treatment with 1 μM of R848, and usually exceeded the effects exhibited by the control oligonucleotide R-0006 | exceeded the activation observed for R848 | exceeded the activation observed for R848 | exceeded the activation observed for R848 | especially higher than the activation observed for R-0006 |  |  |  | especially higher than the activation observed for R-0006 |
